Assays:
ABCA1 = ABCA1 (Mus musculus, UniProt P41233); assay: radiolabelled cholesterol efflux to apoA-I from murine peritoneal macrophages; type: cell-based
[1] = biological target: T1, breast cancer resistant protein (BCRP, ABCG2) (Homo sapiens, UniProt Q9UNQ0); assay: Hoechst […] accumulation assay in H460 cells; type: cell-based
T1 sequence (Q9UNQ0 1-655): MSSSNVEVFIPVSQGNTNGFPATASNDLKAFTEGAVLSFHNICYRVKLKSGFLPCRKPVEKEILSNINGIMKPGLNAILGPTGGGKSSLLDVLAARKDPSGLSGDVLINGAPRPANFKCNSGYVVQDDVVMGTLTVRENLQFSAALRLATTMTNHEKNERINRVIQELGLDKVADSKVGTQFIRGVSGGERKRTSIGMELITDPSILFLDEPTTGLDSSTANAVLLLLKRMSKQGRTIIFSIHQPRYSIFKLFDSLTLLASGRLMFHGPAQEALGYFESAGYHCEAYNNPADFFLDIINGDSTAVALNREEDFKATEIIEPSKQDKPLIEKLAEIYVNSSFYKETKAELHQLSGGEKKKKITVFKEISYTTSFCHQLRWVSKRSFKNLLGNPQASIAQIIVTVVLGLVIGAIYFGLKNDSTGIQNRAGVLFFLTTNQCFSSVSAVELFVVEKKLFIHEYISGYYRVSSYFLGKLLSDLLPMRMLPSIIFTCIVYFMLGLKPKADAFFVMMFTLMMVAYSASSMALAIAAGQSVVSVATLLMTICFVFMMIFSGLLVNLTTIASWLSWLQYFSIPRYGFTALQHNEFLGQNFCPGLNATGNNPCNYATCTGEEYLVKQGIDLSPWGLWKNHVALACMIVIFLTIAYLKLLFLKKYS

ABCA1, sequence (P41233 whole entry): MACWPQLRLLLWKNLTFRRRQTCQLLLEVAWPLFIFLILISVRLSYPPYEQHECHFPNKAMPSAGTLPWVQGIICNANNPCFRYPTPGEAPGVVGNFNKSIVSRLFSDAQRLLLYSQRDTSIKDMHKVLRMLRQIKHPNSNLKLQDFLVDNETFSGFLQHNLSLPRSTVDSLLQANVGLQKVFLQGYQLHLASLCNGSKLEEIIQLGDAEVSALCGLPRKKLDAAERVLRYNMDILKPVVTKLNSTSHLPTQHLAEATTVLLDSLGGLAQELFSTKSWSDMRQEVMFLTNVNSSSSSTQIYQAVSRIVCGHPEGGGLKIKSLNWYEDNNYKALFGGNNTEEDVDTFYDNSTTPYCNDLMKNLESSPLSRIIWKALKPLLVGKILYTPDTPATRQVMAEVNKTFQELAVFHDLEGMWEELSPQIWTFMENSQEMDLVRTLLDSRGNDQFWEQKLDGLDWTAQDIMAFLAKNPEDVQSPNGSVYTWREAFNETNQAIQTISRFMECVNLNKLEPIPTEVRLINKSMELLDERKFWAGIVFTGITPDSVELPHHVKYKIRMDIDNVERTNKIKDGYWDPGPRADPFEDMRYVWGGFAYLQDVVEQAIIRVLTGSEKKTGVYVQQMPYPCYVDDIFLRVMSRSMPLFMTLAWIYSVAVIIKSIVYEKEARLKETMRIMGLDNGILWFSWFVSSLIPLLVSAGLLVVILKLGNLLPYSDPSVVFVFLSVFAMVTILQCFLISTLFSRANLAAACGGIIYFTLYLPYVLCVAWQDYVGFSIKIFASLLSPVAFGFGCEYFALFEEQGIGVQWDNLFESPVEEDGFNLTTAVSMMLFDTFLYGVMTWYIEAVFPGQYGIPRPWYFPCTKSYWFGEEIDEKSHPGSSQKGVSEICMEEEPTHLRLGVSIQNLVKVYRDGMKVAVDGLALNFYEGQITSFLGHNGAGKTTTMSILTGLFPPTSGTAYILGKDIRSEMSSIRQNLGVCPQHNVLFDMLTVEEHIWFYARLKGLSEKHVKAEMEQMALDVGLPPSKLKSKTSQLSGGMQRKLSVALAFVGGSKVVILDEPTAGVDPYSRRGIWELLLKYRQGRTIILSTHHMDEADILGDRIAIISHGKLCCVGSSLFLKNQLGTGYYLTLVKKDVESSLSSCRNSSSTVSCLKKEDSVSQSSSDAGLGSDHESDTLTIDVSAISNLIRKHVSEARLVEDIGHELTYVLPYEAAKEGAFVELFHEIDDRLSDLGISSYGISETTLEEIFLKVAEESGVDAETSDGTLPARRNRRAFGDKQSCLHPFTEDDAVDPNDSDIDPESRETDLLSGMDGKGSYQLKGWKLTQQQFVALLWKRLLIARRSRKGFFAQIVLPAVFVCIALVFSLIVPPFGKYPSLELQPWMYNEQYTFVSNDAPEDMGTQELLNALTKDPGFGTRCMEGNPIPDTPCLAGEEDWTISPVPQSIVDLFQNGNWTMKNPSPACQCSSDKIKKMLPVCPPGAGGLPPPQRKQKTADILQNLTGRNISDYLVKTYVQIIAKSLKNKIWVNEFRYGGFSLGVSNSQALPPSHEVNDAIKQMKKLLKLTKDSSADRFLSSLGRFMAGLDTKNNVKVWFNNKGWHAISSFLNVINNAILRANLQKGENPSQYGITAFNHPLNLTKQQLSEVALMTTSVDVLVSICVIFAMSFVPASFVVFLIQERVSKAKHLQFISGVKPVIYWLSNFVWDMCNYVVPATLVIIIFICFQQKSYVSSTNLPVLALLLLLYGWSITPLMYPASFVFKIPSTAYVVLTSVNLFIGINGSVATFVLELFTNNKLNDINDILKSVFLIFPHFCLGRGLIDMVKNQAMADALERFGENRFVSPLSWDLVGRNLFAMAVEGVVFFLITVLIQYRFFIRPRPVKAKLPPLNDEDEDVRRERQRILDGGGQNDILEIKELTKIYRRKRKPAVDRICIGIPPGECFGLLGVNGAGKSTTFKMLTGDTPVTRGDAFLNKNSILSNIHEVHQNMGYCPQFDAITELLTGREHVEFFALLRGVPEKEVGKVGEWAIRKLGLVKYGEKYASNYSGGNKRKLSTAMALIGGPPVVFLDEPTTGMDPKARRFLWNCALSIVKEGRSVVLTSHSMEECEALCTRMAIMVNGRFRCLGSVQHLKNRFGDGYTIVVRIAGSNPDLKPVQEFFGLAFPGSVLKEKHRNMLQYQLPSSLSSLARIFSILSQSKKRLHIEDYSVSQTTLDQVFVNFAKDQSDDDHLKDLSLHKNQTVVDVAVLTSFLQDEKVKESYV

SMILES: CC(C)(Sc1cc(C(C)(C)C)c(O)c(C(C)(C)C)c1)Sc1cc(C(C)(C)C)c(O)c(C(C)(C)C)c1 [probucol]
- radiolabelled cholesterol efflux to apoA-I from murine peritoneal macrophages (ABCA1): probucol, the lead compound, significantly inhibited in a dose-dependent manner the ABCA1 activity

SMILES: COc1ccc2c3c([nH]c2c1)[C@H](C=C(C)C)N1C(=O)[C@@H]2CCCN2C(=O)[C@@H]1C3 [fumetrimorgin C]
- Hoechst 33342 accumulation assay in H460 cells [1]: the reference compound fumetrimorgin C, as expected, significantly inhibited the amount of Hoechst 33342-caused intracellular fluorescence

Source: PMC9861803, “A New ABCB1 Inhibitor Enhances the Anticancer Effect of Doxorubicin in Both In Vitro and In Vivo Models of NSCLC” (International Journal of Molecular Sciences, 2023)
